Consider 26 compounds from patent US20020103136A1, “Conjugates useful in the treatment of prostate cancer” (priority 1998, published 2002).

Data set [1] has as its system LNCap prostate tumor cells. In words: In vitro cytotoxicity, Alamar Blue assay, LNCaP cell kill in 72 hrs. The settings on record: read-out: LNCaP Cell Kill in 72 HRS EC5O. It is filed as cell-based. The protocol:
(§1) The cytotoxicities of the vinca alkaloid derivatives, prepared as described in Example 1, and the cleaveable oligopeptide-vinca drug conjugates, prepared as described in Examples 2 and 2A, against a line of cells which is known to be killed by unmodified vinca drug was assessed with an Alamar Blue assay. Specifically, cell cultures of LNCap prostate tumor cells, Colo320DM cells (also designated C320), T24 bladder carcinoma cells or T47D breast carcinoma cells in 96 well plates was diluted with medium containing various concentrations of a given conjugate (final plate well volume of 200 μl). The cells were incubated for 3 days at 37° C., 20 μl of Alamar Blue is added to the assay well. The cells were further incubated and the assay plates were read on a EL-310 ELISA reader at the dual wavelengths of 570 and 600 nm at 4 and 7 hours after addition of Alamar Blue. Relative percentage viability at the various concentration of conjugate tested was then calculated versus control (no cytotoxic agent or conjugate) cultures. Unless otherwise indicated, the TFA salt of the cytotoxic agent and the acetate salt of the conjugate were tested.
Background: The colour change of resazurin is a common sign of viable cells or microbes.

In data set [2] the test system is Colo320DM cells (also designated C320). In words: In vitro cytotoxicity, Alamar Blue assay, Colo320DM cells. The settings on record: read-out: Cell Kill in 72 HRS EC5O, Colo320DM. It is filed as cell-based. The protocol:
as §1

The target in data set [3] is T1, enzymatically active free PSA (Homo sapiens, UniProt P07288).
T1 construct: 50% cleavage of the noted oligopeptide-cytotoxic agent conjugates with enzymatically active free PSA; purchased York
T1 sequence (P07288 25-261): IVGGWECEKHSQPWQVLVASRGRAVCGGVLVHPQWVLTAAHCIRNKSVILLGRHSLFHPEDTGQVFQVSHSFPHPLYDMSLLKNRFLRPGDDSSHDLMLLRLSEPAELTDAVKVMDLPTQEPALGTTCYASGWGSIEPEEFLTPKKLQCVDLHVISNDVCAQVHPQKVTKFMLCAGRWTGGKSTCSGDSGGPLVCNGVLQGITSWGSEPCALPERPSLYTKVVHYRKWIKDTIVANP
In words: Recognition/cleavage of oligopeptide-vinca drug conjugates by free PSA (HPLC). It is filed as biochemical. The settings on record: pH 7.4; for Time to 50% Substrate Cleavage by York PSA: conjugate:PSA molar ratio 100 to 1, acetate salt unless otherwise indicated, n > 1 value is an average. The method, then: The conjugates prepared as described in Example 3 were individually dissolved in PSA digestion buffer (50 mM tris(hydroxymethyl)-aminomethane pH7.4, 140 mM NaCl) and the solution added to PSA at a molar ration of 100 to 1. Alternatively, the PSA digestion buffer utilized is 50 mM tris(hydroxymethyl)-aminomethane pH7.4, 140 mM NaCl. The reaction is quenched after various reaction times by the addition of trifluoroacetic acid (TFA) to a final 1% (volume/volume). Alternatively the reaction is quenched with 10 mM ZnCl2. The quenched reaction was analyzed by HPLC on a reversed-phase C18 column using an aqueous 0.1% TFA/acetonitrile gradient. […] Unless otherwise indicated, the acetate salt of the conjugate was tested.

Data set [4] is described as follows: Lability in mouse serum (remark in Table 5). It is filed as in vitro ADME. The settings on record: remark in the Table 5 cell.
For data set [5], the system named is T24 bladder carcinoma cells. Kind of data set: In vitro cytotoxicity, Alamar Blue assay, T24 cells. The settings on record: read-out: Cell Kill in 72 HRS EC5O, T24. It counts as cell-based. The protocol:
as §1

[6] abbreviates: Table 5, 3 days, acetate salt of conjugate unless otherwise indicated.
Setting [7] is: Table 5, value in parentheses, acetate salt unless otherwise indicated.
[8] abbreviates: Table 3, 3 days, TFA salt of cytotoxic agent unless otherwise indicated.
[9] abbreviates: Table 3, value in parentheses, TFA salt unless otherwise indicated.

Where two headings read alike, the source gives them in different places. Square brackets hold non-standard residues; d marks the D form. HCAP = (1S,2R)-(+)-2-hydroxy-3-cyclohexylisopropylamine linker; dAc‑VIN = 4-des-acetylvinblastine; Chg = N[C@H](C(=O)O)C1CCCCC1; Abu = CC[C@H](N)C(=O)O; VIN = not defined here; GABA = NCCCC(=O)O

In the case of “4-des-Acetylvinblastine-23-(N-Acetyl-4-trans-L-Hyp-Ser-Ser-Chg-Gln-Ser-HCAP) Amide Acetate Salt”, the values for the EC50 in data set [1] (setting [6]) and in data set [2] (setting [7]) were 3400 nM and 4600 nM, respectively. Also, the “Time to 50% Substrate Cleavage by York PSA” value in data set [3] stood at 15 min.
The corresponding values for “Ac-SChgQ-SS(4-trans-L-Hyp)-(HCAP)-dAc-VIN (XXQSSX; non-natural residues; cyclised or stapled)” are 5900 nM, 10400 nM and 7 min.
The corresponding values for “Ac-AbuSSChgQ-SP-(HCAP)-(dAc)-VIN (XSSXQSP; non-natural residues; cyclised or stapled)” are 2000 nM, 15700 nM and 18 min.
Turning to “4-des-Acetylvinblastine-23-(N-hydroxyacetyl-Abu-Ser-Ser-Chg-Gln-Ser-Pro-HCAP) amide (XSSXQSP; non-natural residues; cyclised or stapled)”, the EC50 in data set [1] (setting [6]) turned out to be 2000 nM; in data set [2] (setting [7]), 12600 nM. Also, the “Time to 50% Substrate Cleavage by York PSA” value in data set [3] was found to be 11 min.
Turning to “Ac-AbuSSChgQ-S-(HCAP)-VIN (Ac-[Abu]SS[Chg]QS-{HCAP-VIN}; reading uncertain)”, the figures for the EC50 in data set [1] (setting [6]) and in data set [2] (setting [7]) were 6100 nM and 7800 nM, respectively. For the same compound, in data set [3] (1 hour, conjugate:PSA 100 to 1), the “Substrate cleavage by York PSA at 1 HOUR” value is reported as 28%.
Take `CC[C@]1(O)CC2CN(CCc3c([nH]c4ccccc34)[C@@](C(=O)OC)(c3cc4c(cc3OC)N(C)C3C45CCN4CC=C[C@](CC)(C45)[C@@H](O)[C@]3(O)C(=O)N[C@H](COC(=O)[C@H](CO)NC(=O)[C@H](CCC(N)=O)NC(=O)[C@@H](NC(=O)[C@H](CO)NC(=O)[C@H](CO)NC(=O)[C@@H]3C[C@@H](O)CN3C(C)=O)C3CCCCC3)Cc3ccccc3)C2)C1` (some centres unmarked): the “Stability in mouse serum” value in data set [4] was “labile”. Moreover, the “Time to 50% Substrate Cleavage by York PSA” value in data set [3] amounted to 25 min.
For “Ac-4-trans-L-HypSSChgQS-cyclohexylalaninol-(dAc)-VIN (XSSXQSX; non-natural residues; cyclised or stapled)”, the EC50 in data set [1] (setting [6]) was determined as 300 nM; in data set [2] (setting [7]), 2600 nM. Further, in data set [3], the “Time to 50% Substrate Cleavage by York PSA” value was 10 min.
In the same order, the values of “4-des-Acetylvinblastine-23-(N-Acetyl-Ser-Chg-Gln-Ser-Ser-Pro-HCAP) Amide Acetate Salt (SXQSSX; non-natural residues; cyclised or stapled) [Ac-SChgQ-SSP-(HCAP)-VIN]” are 7800 nM, 15700 nM and 8 min.
For the compound “Ac-SChgQSS-Sar-(HCAP)-dAc-VIN (XXQSSX; not fully specified; N-methyl; non-natural residues; cyclised or stapled)”, the “Time to 50% Substrate Cleavage by York PSA” value in data set [3] came out at 13 min.
As for “Ac-SSChgQ-SP-(HCAP)-(dAc)-VIN (Ac-SS[Chg]QSP-{HCAP-dAc‑VIN}; not fully specified)”, the EC50 in data set [1] (setting [6]) was found to be 10200 nM; in data set [2] (setting [7]), 29500 nM. Moreover, the “Time to 50% Substrate Cleavage by York PSA” value in data set [3] was 30 min.
The corresponding values for “Ac-4-trans-L-HypSSChgQS-cyclopropylalaninol-(dAc)-VIN” are 1500 nM, 7500 nM and 45 min.
For `CC[C@]1(O)C[C@@H]2CN(CCc3c([nH]c4ccccc34)[C@@](C(=O)OC)(c3cc4c(cc3OC)N(C)[C@H]3[C@@](O)(C(=O)OC)[C@H](OC(C)=O)[C@]5(CC)C=CCN6CC[C@]43[C@@H]65)C2)C1` [VINBLASTINE, vinblastine], the EC50 is less than 80 nM in data set [5] (Homo sapiens, T-24, 72 h, Table 3, value in parentheses); less than 80 nM in data set [5] (Table 5, value in parentheses); 500 nM in data set [1] (Homo sapiens, 72 h, Table 3, 3 days, TFA salt of cytotoxic agent unless otherwise indicated).
As to “Ac-SChgQSS(PIP)-(HCAP)-dAc-VIN (XXQSSX; non-natural residues; cyclised or stapled)”, in data set [3], the “Time to 50% Substrate Cleavage by York PSA” value amounted to 22 min.
With “Ac-SChgQSS-gammaAbu-(HCAP)-dAc-VIN (Ac-S[Chg]QSS[GABA]-{HCAP-dAc‑VIN}; not fully specified)”, the figures for the EC50 in data set [1] (setting [6]) and in data set [2] (setting [7]) were 2300 nM and 4300 nM, respectively. In addition, the “Time to 50% Substrate Cleavage by York PSA” value in data set [3] is 12 min.
For “Ac-SChgQ-SP-(HCAP)-(dAc)-VIN (Ac-S[Chg]QSP-{HCAP-dAc‑VIN})”, the EC50 in data set [1] (setting [6]) worked out at 7800 nM; in data set [2] (setting [7]), 15700 nM. In data set [3], the “Time to 50% Substrate Cleavage by York PSA” value is 13 min.
For the compound “Ac-SChgQS-Abu-(HCAP)-VIN (Ac-S[Chg]QS[Abu]-{HCAP-VIN}; reading uncertain)”, the EC50 came to 800 nM in data set [1] (setting [6]) and 2000 nM in data set [2] (setting [7]). Moreover, the “Time to 50% Substrate Cleavage by York PSA” value in data set [3] is 60 min.
As for “Ac-4-trans-L-HypSSChgQSP(HCAP)-VIN (XSSXQSX; non-natural residues; cyclised or stapled)”, the EC50 in data set [1] (setting [6]) amounted to 5500 nM; in data set [2] (setting [7]) it was 15600 nM. In data set [3], the “Time to 50% Substrate Cleavage by York PSA” value amounted to 8 min.
With `CC[C@]1(O)C[C@@H]2CN(CCc3c([nH]c4ccccc34)[C@@](C(=O)OC)(c3cc4c(cc3OC)N(C)[C@H]3[C@@](O)(C(=O)OC)[C@H](O)[C@]5(CC)C=CCN6CC[C@]43[C@@H]65)C2)C1` [(dAc)-VINBLASTINE, desacetylvinblastine, reference compound], the EC50 stood at 300 nM in data set [1] (setting [8]) and 500 nM in data set [2] (setting [9]).
On to “Ac-SChgQSS(HCAP)-dAc-VIN (Ac-S[Chg]QSS-{HCAP-dAc‑VIN})”, for which the EC50 in data set [1] (setting [6]) and in data set [2] (setting [7]) was 1400 nM in each case. Further, in data set [3], the “Time to 50% Substrate Cleavage by York PSA” value amounted to 12 min.
For `CC[C@]1(O)C[C@@H]2CN(CCc3c([nH]c4ccccc34)[C@@](C(=O)OC)(c3cc4c(cc3OC)N(C)[C@H]3[C@@](O)(C(=O)N[C@H](CO)CC5CCCCC5)[C@H](O)[C@]5(CC)C=CCN6CC[C@]43[C@@H]65)C2)C1` [L-cyclolhexyl-alaninol-(dAc)-VIN], the EC50 came out at 1000 nM in data set [1] (setting [8]) and 2000 nM in data set [2] (setting [9]).
“Ac-SSChgQ-SSP-(HCAP)-dAc-VIN (XSXQSSX; not fully specified; non-natural residues; cyclised or stapled)”: the EC50 is 2600 nM in data set [1] (setting [6]) and 6300 nM in data set [2] (setting [7]). Further, the “Time to 50% Substrate Cleavage by York PSA” value in data set [3] is 8 min.
As to `CC[C@]1(O)C[C@@H]2CN(CCc3c([nH]c4ccccc34)[C@@](C(=O)OC)(c3cc4c(cc3OC)N(C)[C@H]3[C@@](O)(C(=O)NC5CCCCC5O)[C@H](O)[C@]5(CC)C=CCN6CC[C@]43[C@@H]65)C2)C1` (single isomer, unassigned; isomer a) [(trans-2-hydroxyl)cyclohexylamine-(dAc)-VIN, Isomer A], the EC50 was determined as 100 nM in data set [1] (setting [8]) and 200 nM in data set [2] (setting [9]).
On to “Ac-4-trans-L-Hyp-SSChgQ-SS-(HCAP)-(dAc)-VIN (XSSXQSS; non-natural residues; cyclised or stapled)”, for which the EC50 in data set [1] (setting [6]) turned out to be 2000 nM; in data set [2] (setting [7]), 5000 nM. Moreover, the “Time to 50% Substrate Cleavage by York PSA” value in data set [3] stood at 17 min.
Regarding Ac-AbuSChgQ-SP-(HCAP)-(dAc)-VIN, the EC50 in data set [1] (setting [6]) is 4100 nM; in data set [2] (setting [7]), 15700 nM. The “Time to 50% Substrate Cleavage by York PSA” value in data set [3] is recorded as 17 (n = 2) Min.
Regarding `CCOC(=O)[C@H](CC1CC1)NC(=O)[C@@]1(O)[C@H](O)[C@]2(CC)C=CCN3CC[C@@]4(c5cc([C@@]6(C(=O)OC)C[C@H]7CN(CCc8c6[nH]c6ccccc86)C[C@](O)(CC)C7)c(OC)cc5N(C)[C@@H]14)[C@@H]32` [L-cyclopropyl-alainine-OEt-(dAc)-VIN], the EC50 in data set [1] (setting [8]) is 1400 nM; in data set [2] (setting [9]), 1000 nM.
The corresponding values for `CC[C@]1(O)C[C@@H]2CN(CCc3c([nH]c4ccccc34)[C@@](C(=O)OC)(c3cc4c(cc3OC)N(C)[C@H]3[C@@](O)(C(=O)NCC(C)O)[C@H](O)[C@]5(CC)C=CCN6CC[C@]43[C@@H]65)C2)C1` (some centres unmarked) [2-hydroxylpropylamino-(dAc)-VIN] are 1200 nM and 2900 nM.
